What was measured:
PI3K-delta = target: T1, PI3K-delta (Homo sapiens, UniProt O00329); assay: HTRF PI3K biochemical assay, delta isoform; settings: form screened (neutral or TFA salt) given, read-out: PI3Kdelta IC50
T1 construct: purchased Upstate; Millipore 14-604

PI3K-alpha = target: T2, PI3K-alpha (Homo sapiens, UniProt P42336); assay: HTRF PI3K biochemical assay, alpha isoform; settings: ratio PI3K-alpha IC50 value / PI3K-delta IC50 value
T2 construct: purchased Upstate; Millipore 14-602
T2 sequence (P42336 whole entry, canonical isoform): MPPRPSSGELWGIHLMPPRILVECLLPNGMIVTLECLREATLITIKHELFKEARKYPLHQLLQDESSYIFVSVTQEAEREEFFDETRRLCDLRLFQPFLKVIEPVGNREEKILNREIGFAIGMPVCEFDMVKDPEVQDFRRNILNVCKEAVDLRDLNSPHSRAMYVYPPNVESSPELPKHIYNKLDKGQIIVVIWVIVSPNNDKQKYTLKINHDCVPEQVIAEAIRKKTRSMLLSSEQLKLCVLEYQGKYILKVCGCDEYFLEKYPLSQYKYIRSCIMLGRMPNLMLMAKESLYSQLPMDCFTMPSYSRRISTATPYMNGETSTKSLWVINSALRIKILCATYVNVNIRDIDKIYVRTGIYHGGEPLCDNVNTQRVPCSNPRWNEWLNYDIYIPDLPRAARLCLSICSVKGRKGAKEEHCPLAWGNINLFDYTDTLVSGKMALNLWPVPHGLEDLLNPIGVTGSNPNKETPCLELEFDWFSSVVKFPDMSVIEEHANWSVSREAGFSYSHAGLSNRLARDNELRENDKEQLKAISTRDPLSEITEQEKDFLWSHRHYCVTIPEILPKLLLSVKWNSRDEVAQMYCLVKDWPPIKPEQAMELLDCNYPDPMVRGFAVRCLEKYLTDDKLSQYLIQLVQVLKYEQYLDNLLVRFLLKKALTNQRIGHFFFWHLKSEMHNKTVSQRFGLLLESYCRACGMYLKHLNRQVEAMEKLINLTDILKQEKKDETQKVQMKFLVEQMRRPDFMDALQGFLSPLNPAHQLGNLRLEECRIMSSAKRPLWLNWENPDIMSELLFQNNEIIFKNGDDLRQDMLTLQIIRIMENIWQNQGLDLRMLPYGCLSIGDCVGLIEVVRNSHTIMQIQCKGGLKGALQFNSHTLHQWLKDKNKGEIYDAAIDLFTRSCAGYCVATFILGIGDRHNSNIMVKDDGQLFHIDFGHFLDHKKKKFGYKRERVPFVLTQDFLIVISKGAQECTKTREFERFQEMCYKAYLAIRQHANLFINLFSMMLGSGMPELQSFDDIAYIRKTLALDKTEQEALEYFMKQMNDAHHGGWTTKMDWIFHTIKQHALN
T2 sequence (P27986 whole entry partner, canonical isoform): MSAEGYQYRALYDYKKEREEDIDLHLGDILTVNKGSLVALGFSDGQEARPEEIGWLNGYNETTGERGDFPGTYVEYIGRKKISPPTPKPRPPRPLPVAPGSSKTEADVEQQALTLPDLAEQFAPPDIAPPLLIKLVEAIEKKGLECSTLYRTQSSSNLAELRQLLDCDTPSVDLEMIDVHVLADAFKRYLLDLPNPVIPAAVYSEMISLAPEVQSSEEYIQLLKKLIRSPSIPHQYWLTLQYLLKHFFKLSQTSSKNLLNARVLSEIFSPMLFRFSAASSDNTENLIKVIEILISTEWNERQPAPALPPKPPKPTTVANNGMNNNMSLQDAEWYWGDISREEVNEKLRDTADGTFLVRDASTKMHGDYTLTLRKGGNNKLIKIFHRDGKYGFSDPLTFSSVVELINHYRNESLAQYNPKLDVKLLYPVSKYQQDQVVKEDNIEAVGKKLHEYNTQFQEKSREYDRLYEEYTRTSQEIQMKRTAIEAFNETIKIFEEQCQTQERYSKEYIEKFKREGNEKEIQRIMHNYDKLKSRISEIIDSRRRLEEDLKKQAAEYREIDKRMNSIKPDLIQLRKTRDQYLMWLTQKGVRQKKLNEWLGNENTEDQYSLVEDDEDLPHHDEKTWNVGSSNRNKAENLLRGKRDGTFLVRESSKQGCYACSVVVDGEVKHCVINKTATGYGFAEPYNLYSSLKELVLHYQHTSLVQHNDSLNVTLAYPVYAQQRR

T1 sequence (O00329 whole entry, canonical isoform): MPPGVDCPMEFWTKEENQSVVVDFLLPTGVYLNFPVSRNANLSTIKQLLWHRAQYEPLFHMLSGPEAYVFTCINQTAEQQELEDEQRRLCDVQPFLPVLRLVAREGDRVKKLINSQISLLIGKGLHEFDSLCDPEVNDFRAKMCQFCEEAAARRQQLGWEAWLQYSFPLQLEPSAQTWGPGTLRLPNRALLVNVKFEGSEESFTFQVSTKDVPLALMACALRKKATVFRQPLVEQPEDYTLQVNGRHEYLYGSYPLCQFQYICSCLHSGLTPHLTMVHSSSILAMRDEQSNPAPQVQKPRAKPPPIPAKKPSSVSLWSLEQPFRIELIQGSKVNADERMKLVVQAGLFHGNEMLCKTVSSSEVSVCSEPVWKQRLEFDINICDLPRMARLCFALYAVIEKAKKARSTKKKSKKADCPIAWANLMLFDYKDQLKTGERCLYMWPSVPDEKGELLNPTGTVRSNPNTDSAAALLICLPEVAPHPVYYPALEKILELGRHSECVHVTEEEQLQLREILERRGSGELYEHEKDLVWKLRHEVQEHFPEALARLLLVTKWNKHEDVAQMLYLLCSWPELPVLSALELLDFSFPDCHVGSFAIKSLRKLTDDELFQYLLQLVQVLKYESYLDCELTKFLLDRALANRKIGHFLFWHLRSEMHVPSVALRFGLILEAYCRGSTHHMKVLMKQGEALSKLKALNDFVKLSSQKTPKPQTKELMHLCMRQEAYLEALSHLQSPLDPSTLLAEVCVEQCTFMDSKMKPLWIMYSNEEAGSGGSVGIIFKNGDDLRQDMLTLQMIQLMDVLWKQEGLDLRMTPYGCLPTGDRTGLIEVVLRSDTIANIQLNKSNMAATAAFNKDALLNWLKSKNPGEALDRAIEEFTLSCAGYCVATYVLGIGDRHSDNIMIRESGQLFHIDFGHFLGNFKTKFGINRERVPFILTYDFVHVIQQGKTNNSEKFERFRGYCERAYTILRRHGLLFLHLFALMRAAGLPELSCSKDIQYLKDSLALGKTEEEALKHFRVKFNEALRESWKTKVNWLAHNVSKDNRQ
T1 sequence (P27986 whole entry partner, canonical isoform): as the sequence (P27986 whole entry partner, canonical isoform) above

Compound | IC50 (PI3K-delta) | Selectivity versus PI3Kalpha (PI3K-alpha)
CCC(=O)N1CC[C@H](Nc2ncnc3c2nc(-c2ccc(OC)c(C)c2)n3C)C1 [Compound 3-32, 8-(4-methoxy-3-methylphenyl)-9-methyl-N-[(3S)-1-propanoylpyrrolidin-3-yl]-9H-purin-6-amine] | 1.9 nM | >10
CCC(=O)N1CC[C@H](Nc2ncnc3c2nc(-c2cnc(OC)c(C#N)c2)n3C)C1 [Compound 3-33, 2-methoxy-5-(9-methyl-6-{[(3S)-1-propanoylpyrrolidin-3-yl]amino}-9H-purin-8-yl)pyridine-3-carbonitrile] | 2.3 nM | >10
CCC(=O)N1CC[C@H](Nc2ncnc3c2nc(-c2cncc(C(C)(C)O)c2)n3C)C1 [Compound 3-34, 2-[5-(9-methyl-6-{[(3S)-1-propanoylpyrrolidin-3-yl]amino}-9H-purin-8-yl)pyridin-3-yl]propan-2-ol] | 2 nM | >10
CCn1c(-c2cnc3c(cnn3C)c2)nc2c(N[C@H]3CCN(C(=O)C4CC4)C3)ncnc21 [Compound 3-35, N-[(3S)-1-(cyclopropylcarbonyl)pyrrolidin-3-yl]-9-ethyl-8-(1-methyl-1H-pyrazolo[3,4-b]pyridin-5-yl)-9H-purin-6-amine] | < 1 nM | >10
CCn1c(-c2cnn(CC(F)(F)F)c2)nc2c(N[C@H]3CCN(C(=O)C4CC4)C3)ncnc21 [Compound 3-36, N-[(3S)-1-(cyclopropylcarbonyl)pyrrolidin-3-yl]-9-ethyl-8-[1-(2,2,2-trifluoroethyl)-1H-pyrazol-4-yl]-9H-purin-6-amine] | 1.2 nM | >10
CCn1c(-c2cncc(-c3ccccc3)c2)nc2c(N[C@H]3CCN(C(=O)C4CC4)C3)ncnc21 [Compound 3-37, N-[(3S)-1-(cyclopropylcarbonyl)pyrrolidin-3-yl]-9-ethyl-8-(5-phenylpyridin-3-yl)-9H-purin-6-amine] | 5.4 nM | >10
CCn1c(-c2cncc(Cl)c2)nc2c(N[C@H]3CCN(C(=O)C4CC4)C3)ncnc21 [Compound 3-38, 8-(5-chloropyridin-3-yl)-N-[(3S)-1-(cyclopropylcarbonyl)pyrrolidin-3-yl]-9-ethyl-9H-purin-6-amine] | 1.8 nM | >10
CCn1c(-c2cnc(CO)nc2)nc2c(N[C@H]3CCN(C(=O)C4CC4)C3)ncnc21 [Compound 3-39, [5-(6-{[(3S)-1-(cyclopropylcarbonyl)pyrrolidin-3-yl]amino}-9-ethyl-9H-purin-8-yl)pyrimidin-2-yl]methanol] | 3.4 nM | >10
CCn1c(-c2cnc(OC)c(F)c2)nc2c(N[C@H]3CCN(C(=O)c4cocn4)C3)ncnc21 [Compound 3A-1, 9-ethyl-8-(5-fluoro-6-methoxypyridin-3-yl)-N-[(3S)-1-(1,3-oxazol-4-ylcarbonyl)pyrrolidin-3-yl]-9H-purin-6-amine] | 1 nM | >10
CCn1c(-c2cnc(OC)c(F)c2)nc2c(N[C@H]3CCN(C(=O)c4cncn4C)C3)ncnc21 [Compound 3A-2, 9-ethyl-8-(5-fluoro-6-methoxypyridin-3-yl)-N-{(3S)-1-[(1-methyl-1H-imidazol-5-yl)carbonyl]pyrrolidin-3-yl}-9H-purin-6-amine] | < 1 nM | >10
CCn1c(-c2ccc(OC)nc2)nc2c(N[C@H]3CCN(C(=O)C4CCOCC4)C3)ncnc21 [Compound 3A-3, 9-ethyl-8-(6-methoxypyridin-3-yl)-N-[(3S)-1-(tetrahydro-2H-pyran-4-ylcarbonyl)pyrrolidin-3-yl]-9H-purin-6-amine] | < 1 nM | >10
CCn1c(-c2cnc(OC)c(C)c2)nc2c(N[C@H]3CCN(C(=O)C4CCOCC4)C3)ncnc21 [Compound 3A-4, 9-ethyl-8-(6-methoxy-5-methylpyridin-3-yl)-N-[(3S)-1-(tetrahydro-2H-pyran-4-ylcarbonyl)pyrrolidin-3-yl]-9H-purin-6-amine] | < 1 nM | >10
CCn1c(-c2cnc(OC)c(C)c2)nc2c(N[C@H]3CCN(C(=O)C4CC(F)(F)C4)C3)ncnc21 [Compound 3A-5, N-{(3S)-1-[(3,3-difluorocyclobutyl)carbonyl]pyrrolidin-3-yl}-9-ethyl-8-(6-methoxy-5-methylpyridin-3-yl)-9H-purin-6-amine] | < 1 nM | >10
CCn1c(-c2cnc(OC)c(C)c2)nc2c(N[C@H]3CCN(C(=O)c4cncn4C)C3)ncnc21 [Compound 3A-6, 9-ethyl-8-(6-methoxy-5-methylpyridin-3-yl)-N-{(3S)-1-[(1-methyl-1H-imidazol-5-yl)carbonyl]pyrrolidin-3-yl}-9H-purin-6-amine] | < 1 nM | >10
CCn1c(-c2cnc(OC)c(F)c2)nc2c(N[C@H]3CCN(C(=O)C4CC(F)(F)C4)C3)ncnc21 [Compound 3A-7, N-{(3S)-1-[(3,3-difluorocyclobutyl)carbonyl]pyrrolidin-3-yl}-9-ethyl-8-(5-fluoro-6-methoxypyridin-3-yl)-9H-purin-6-amine] | < 1 nM | >10
CCn1c(-c2ccc(OC)nc2)nc2c(N[C@H]3CCN(C(=O)C4CC(F)(F)C4)C3)ncnc21 [Compound 3A-8, N-{(3S)-1-[(3,3-difluorocyclobutyl)carbonyl]pyrrolidin-3-yl}-9-ethyl-8-(6-methoxypyridin-3-yl)-9H-purin-6-amine] | < 1 nM | >10

Second part, the molecule after the results:

IC50 (PI3K-delta) | Selectivity versus PI3Kalpha (PI3K-alpha) | Compound
< 1 nM | >10 | CCn1c(-c2cnc(C)nc2)nc2c(N[C@H]3CCN(c4ccccn4)C3)ncnc21 [Compound 4-1, 9-ethyl-8-(2-methylpyrimidin-5-yl)-N-[(3S)-1-pyridin-2-ylpyrrolidin-3-yl]-9H-purin-6-amine]
6.9 nM | >10 | CCn1c(-c2cnc(C)nc2)nc2c(N[C@H]3CCN(c4ncccn4)C3)ncnc21 [Compound 4-2, 9-ethyl-8-(2-methylpyrimidin-5-yl)-N-[(3S)-1-pyrimidin-2-ylpyrrolidin-3-yl]-9H-purin-6-amine]
3.7 nM | >10 | CCn1c(-c2cnc(C)nc2)nc2c(N[C@H]3CCN(c4ccc(C)cn4)C3)ncnc21 [Compound 4-3, 9-ethyl-N-[(3S)-1-(5-methylpyridin-2-yl)pyrrolidin-3-yl]-8-(2-methylpyrimidin-5-yl)-9H-purin-6-amine]
< 1 nM | >10 | CCn1c(-c2ccc(C(F)(F)F)nc2)nc2c(N[C@H]3CCN(c4ccccn4)C3)ncnc21 [Compound 4-4, 9-ethyl-N-[(3S)-1-pyridin-2-ylpyrrolidin-3-yl]-8-[6-(trifluoromethyl)pyridin-3-yl]-9H-purin-6-amine]
9.6 nM | >10 | CCn1c(-c2cnc(C)nc2)nc2c(N[C@H]3CCCN(c4ccccn4)C3)ncnc21 [Compound 4-5, 9-ethyl-8-(2-methylpyrimidin-5-yl)-N-[(3S)-1-pyridin-2-ylpiperidin-3-yl]-9H-purin-6-amine]
4.7 nM | >10 | CCc1ccnc(N2CC[C@H](Nc3ncnc4c3nc(-c3cnc(C)nc3)n4CC)C2)c1 [Compound 4-6, 9-ethyl-N-[(3S)-1-(4-ethylpyridin-2-yl)pyrrolidin-3-yl]-8-(2-methylpyrimidin-5-yl)-9H-purin-6-amine]
1.4 nM | >10 | CCn1c(-c2cnc(C)nc2)nc2c(N[C@H]3CCN(c4cccc(OC)n4)C3)ncnc21 [Compound 4-7, 9-ethyl-N-[(3S)-1-(6-methoxypyridin-2-yl)pyrrolidin-3-yl]-8-(2-methylpyrimidin-5-yl)-9H-purin-6-amine]
2.3 nM | >10 | CCn1c(-c2cnc(C)nc2)nc2c(N[C@H]3CCN(c4cccc(NC)n4)C3)ncnc21 [Compound 4-8, 9-ethyl-N-{(3S)-1-[6-(methylamino)pyridin-2-yl]pyrrolidin-3-yl}-8-(2-methylpyrimidin-5-yl)-9H-purin-6-amine]
6.6 nM | >10 | CCn1c(-c2cnc(C)nc2)nc2c(N[C@H]3CCN(c4nccc5ccccc45)C3)ncnc21 [Compound 4-9, 9-ethyl-N-[(3S)-1-isoquinolin-1-ylpyrrolidin-3-yl]-8-(2-methylpyrimidin-5-yl)-9H-purin-6-amine]
13 nM | >10 | CCn1c(-c2cnc(C)nc2)nc2c(N[C@H]3CCN(c4ncccc4C)C3)ncnc21 [Compound 4-10, 9-ethyl-N-[(3S)-1-(3-methylpyridin-2-yl)pyrrolidin-3-yl]-8-(2-methylpyrimidin-5-yl)-9H-purin-6-amine]
12 nM | >10 | CCn1c(-c2cnc(C)nc2)nc2c(N[C@H]3CCN(c4ccc(C#N)cn4)C3)ncnc21 [Compound 4-11, 6-[(3S)-3-{[9-ethyl-8-(2-methylpyrimidin-5-yl)-9H-purin-6-yl]amino}pyrrolidin-1-yl]pyridine-3-carbonitrile]
8.2 nM | >10 | CCn1c(-c2cnc(C)nc2)nc2c(N[C@H]3C[C@H](C(=O)OC)N(c4ccccn4)C3)ncnc21 [Compound 4-12, methyl (4S)-4-{[9-ethyl-8-(2-methylpyrimidin-5-yl)-9H-purin-6-yl]amino}-1-pyridin-2-yl-D-prolinate]
14 nM | >10 | CCn1c(-c2cnc(C)nc2)nc2c(N[C@H]3CCN(c4nccc5sccc45)C3)ncnc21 [Compound 4-13, 9-ethyl-8-(2-methylpyrimidin-5-yl)-N-[(3S)-1-thieno[3,2-c]pyridin-4-y 1pyrrolidin-3-yl]-9H-purin-6-amine]
13 nM | >10 | CCn1c(-c2cnc(C)nc2)nc2c(N[C@H]3CC[C@H](C(=O)N(C)C4CC4)C3)ncnc21 [Compound 5-1, (1S,3S)-N-cyclopropyl-3-{[9-ethyl-8-(2-methylpyrimidin-5-yl)-9H-purin-6-yl]amino}-N-methylcyclopentanecarboxamide]

Source: patent US9938281B2 (Merck Sharp & Dohme Corp., priority 2012, dated 2018)
